Results as given in patent US9611278B2 (Merck Sharp & Dohme Corp., priority 2013, dated 2017).

Target: T1, sGC α1/β1 heterodimer stably expressed in CHO-K1 cells (CHO-K1/sGC) (Homo sapiens, UniProt Q02108+Q02153)
T1 construct: expressed in transfected cells
T1 sequence (Q02108 1-690): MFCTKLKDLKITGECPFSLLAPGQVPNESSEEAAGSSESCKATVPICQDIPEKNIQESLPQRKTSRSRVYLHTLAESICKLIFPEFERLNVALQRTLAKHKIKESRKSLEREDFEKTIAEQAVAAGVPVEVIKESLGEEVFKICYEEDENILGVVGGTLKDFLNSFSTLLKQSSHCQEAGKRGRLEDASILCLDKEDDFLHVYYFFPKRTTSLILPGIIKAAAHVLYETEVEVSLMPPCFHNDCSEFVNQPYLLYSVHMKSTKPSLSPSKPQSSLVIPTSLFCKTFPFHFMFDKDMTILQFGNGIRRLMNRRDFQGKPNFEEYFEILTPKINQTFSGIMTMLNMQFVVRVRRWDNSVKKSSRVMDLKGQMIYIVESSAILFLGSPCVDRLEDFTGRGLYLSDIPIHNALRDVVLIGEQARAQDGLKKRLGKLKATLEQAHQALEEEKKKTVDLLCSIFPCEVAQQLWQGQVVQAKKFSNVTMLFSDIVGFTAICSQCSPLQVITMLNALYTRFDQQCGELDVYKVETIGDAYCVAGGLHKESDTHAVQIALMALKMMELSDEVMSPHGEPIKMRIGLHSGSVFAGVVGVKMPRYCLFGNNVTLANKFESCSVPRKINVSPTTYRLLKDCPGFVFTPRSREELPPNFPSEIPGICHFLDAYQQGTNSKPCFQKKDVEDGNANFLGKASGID
T1 sequence (Q02153 1-619): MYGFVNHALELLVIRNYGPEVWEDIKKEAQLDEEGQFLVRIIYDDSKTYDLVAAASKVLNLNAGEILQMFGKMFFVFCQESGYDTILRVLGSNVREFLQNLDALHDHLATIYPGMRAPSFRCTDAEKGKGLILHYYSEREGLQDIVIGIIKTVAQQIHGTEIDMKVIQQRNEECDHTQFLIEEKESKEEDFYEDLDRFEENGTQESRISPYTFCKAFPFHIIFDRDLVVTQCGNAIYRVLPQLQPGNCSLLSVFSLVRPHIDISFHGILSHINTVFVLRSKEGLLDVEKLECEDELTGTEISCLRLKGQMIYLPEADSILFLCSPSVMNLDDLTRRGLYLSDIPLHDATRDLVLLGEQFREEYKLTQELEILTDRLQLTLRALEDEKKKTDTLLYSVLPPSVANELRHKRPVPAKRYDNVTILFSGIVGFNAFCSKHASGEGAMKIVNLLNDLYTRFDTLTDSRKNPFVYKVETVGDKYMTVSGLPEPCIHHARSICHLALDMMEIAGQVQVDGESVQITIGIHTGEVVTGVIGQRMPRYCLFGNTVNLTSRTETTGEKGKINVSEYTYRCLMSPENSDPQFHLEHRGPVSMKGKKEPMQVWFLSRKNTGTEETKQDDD
Assay: Cell-based sGC Functional Assay (CASA Assay)
Conditions: for Emax: CHO-K1, activation as percentage of maximum cGMP production of Compound A (set to 100%), read-out: % Act.; for EC50: inflection point of cGMP generation in CHO-K1/sGC cells, 4P fit, 1 hr at 37° C., read-out: IP
Source text: sGC is a heme-containing enzyme that converts GTP to secondary messenger cGMP. Increases in cGMP levels affect several physiological processes including vasorelaxation through multiple downstream pathways. […] Heme-dependent activators (HDAs) preferentially activate sGC containing a ferrous heme group. To determine the effect of sGC activators on enzyme activity, the CASA assay was developed to monitor the generation of cGMP in a cell line that stably expresses the heterodimeric sGC protein.
A CHO-K1 cell line stably expressing the sGC α1/β1 heterodimer was generated using a standard transfection protocol. CHO-K1 cells were transfected with plasmids pIREShyghsGCα1 and pIRESneo-hsGCβ1 simultaneously using FUGENE reagent. Clones that stably express both subunits were selected with hygromycin and neomycin for ˜2 weeks. Clone #7 was chosen for the assay and was designated CHO-K1/sGC. CHO-K1/sGC cells were maintained in F-K12 medium containing 10% heat-inactivated Fetal Bovine Serum (FBS), 100 μg/mL penicillin/streptomycin, 0.5 mg/mL hygromycin and 0.25 mg/mL G418. The cells were then cryopreserved in LN2. On the day of the assay, cells thawed and resuspended in EBSS Assay Buffer (EAB, Sigma, E3024) supplemented with 5 mM MgCl2, 10 mM HEPES (4-(2-hydroxyethyl)piperazine-1-ethanesulfonic acid) and 0.05% BSA (bovine serum albumin) and cell density was then adjusted to 4×10^5/mL with EAB. IBMX (3-isobutyl-1-methylxanthin, 0.5 mM) was added to inhibit degradation of cGMP. Compounds were diluted from DMSO stock solutions and added to the assay at a final DMSO concentration of 2.5%. Cells were incubated with compounds in the presence and absence of 1 μM of Diethylenetriamine/nitric oxide adduct (DETA-NO; Sigma, 17018) for 1 hr at 37° C. At the end of the incubation period, the reaction was terminated and the cells were lysed with the detection reagents from Cisbio Kits. The level of intracellular cGMP was determined using an HTRF-based assay kit (CisBio, 62GM2PEC), which detects the displacement of a fluorescence labeled cGMP from its specific antibody. The cGMP produced by test compounds was directly compared to the maximum cGMP production (this value was set to equal 100% activation.) of the published sGC-HDA Compound A:
(Example 1 in WO 2010/065275, published Jun. 10, 2010). The test compounds' activity were then expressed as a percentage of Compound A, the standard in every experiment. This percent activation was calculated either in the presence or absence of DETA-NO which was then plotted. IP and maximum fold induction was derived using ADA analysis software for 4P fit.

Row | SMILES | Emax | EC50 | % Act. (activation as percentage of maximum cGMP production of Compound A (set to 100%))
1 | Cn1ncc2c(-c3nc(N)c4c(n3)NC(=O)C4(C)c3cn(CC4CC4)nn3)nc(CCC(F)(F)C(F)(F)F)nc21 (centres unmarked) [Example 65, 4-Amino-5-(1-(cyclopropylmethyl)-1H-1,2,3-triazol-4-yl)-5-methyl-2-(1-methyl-6-(3,3,4,4,4-pentafluorobutyl)-1H-pyrazolo[3,4-d]pyrimidin-4-yl)-5,7-dihydro-6H-pyrrolo[2,3-d]pyrimidin-6-one] | 111% | 169 nM | –
2 | Cn1ncc2c(-c3nc(N)c4c(n3)NC(=O)C4(C)c3cn(C4CCC4)nn3)nc(CCC(F)(F)C(F)(F)F)nc21 (single isomer, unassigned) [Example 74, 4-Amino-5-(1-cyclobutyl-1H-1,2,3-triazol-4-yl)-5-methyl-2-(1-methyl-6-(3,3,4,4,4-pentafluorobutyl)-1H-pyrazolo[3,4-d]pyrimidin-4-yl)-5,7-dihydro-6H-pyrrolo[2,3-d]pyrimidin-6-one] | 120% | 78 nM | –
3 | CCCn1cc(C2(C)C(=O)Nc3nc(-c4nc(CCC(F)(F)C(F)(F)F)nc5c4cnn5C)nc(N)c32)nn1 (single isomer, unassigned) [Example 71, 4-Amino-5-methyl-2-(1-methyl-6-(3,3,4,4,4-pentafluorobutyl)-1H-pyrazolo[3,4-d]pyrimidin-4-yl)-5-(1-propyl-1H-1,2,3-triazol-4-yl)-5,7-dihydro-6H-pyrrolo[2,3-d]pyrimidin-6-one] | 169% | 217 nM | –
4 | CCCCc1nc(-c2nc(N)c3c(n2)NC(=O)C3(C)c2ccc(OC)cn2)c2cnn(C)c2n1 (single isomer, unassigned) [Example 36, 4-Amino-2-(6-butyl-1-methyl-1H-pyrazolo[3,4-d]pyrimidin-4-yl)-5-(5-methoxypyridin-2-yl)-5-methyl-5,7-dihydro-6H-pyrrolo[2,3-d]pyrimidin-6-one] | 116% | 43 nM | –
5 | CCC1(c2ccc(OC)nc2)C(=O)Nc2nc(-c3nc(CCC(F)(F)C(F)(F)F)nc4c3cnn4C)nc(N)c21 (centres unmarked) [Example 17, 4-Amino-5-ethyl-5-(6-methoxypyridin-3-yl)-2-(1-methyl-6-(3,3,4,4,4-pentafluorobutyl)-1H-pyrazolo[3,4-d]pyrimidin-4-yl)-5,7-dihydro-6H-pyrrolo[2,3-d]pyrimidin-6-one] | 116% | 122 nM | –
6 | Cn1ncc2c(-c3nc(N)c4c(n3)NC(=O)C4(c3ccc(C(F)(F)F)cn3)C3CC3)nc(CC3CC(F)(F)C3)nc21 (centres unmarked) [Example 32, 4-Amino-5-cyclopropyl-2-(6-((3,3-difluorocyclobutyl)methyl)-1-methyl-1H-pyrazolo[3,4-d]pyrimidin-4-yl)-5-(5-(trifluoromethyl)pyridin-2-yl)-5,7-dihydro-6H-pyrrolo[2,3-d]pyrimidin-6-one] | 113% | 59 nM | –
7 | Cn1ccc2c(-c3nc(N)c4c(n3)NC(=O)C4(C)c3ccc(F)cn3)nc(CCC(F)(F)C(F)(F)F)nc21 (centres unmarked) [Example 85, 4-Amino-5-(5-fluoropyridin-2-yl)-5,7′-dimethyl-2′-(3,3,4,4,4-pentafluorobutyl)-5,7-dihydro-6H,7′H-[2,4′-bipyrrolo[2,3-d]pyrimidin]-6-one] | 108% | 112 nM | –
8 | Cn1ncc2c(-c3nc(N)c4c(n3)NC(=O)C4(c3cnoc3)C3CC3)nc(CCC(F)(F)C(F)(F)F)nc21 (centres unmarked) [Example 16, 4-Amino-5-cyclopropyl-5-(isoxazol-4-yl)-2-(1-methyl-6-(3,3,4,4,4-pentafluorobutyl)-1H-pyrazolo[3,4-d]pyrimidin-4-yl)-5,7-dihydro-6H-pyrrolo[2,3-d]pyrimidin-6-one] | 107% | 160 nM | –
9 | [2H]C([2H])([2H])n1ncc2c(-c3nc(N)c4c(n3)NC(=O)C4(c3nnc(C)o3)C3CC3)nc(CCC(F)(F)C(F)(F)F)nc21 (single isomer, unassigned) [Example 40A, 4-Amino-5-cyclopropyl-5-(5-methyl-1,3,4-oxadiazol-2-yl)-2-(1-(methyl-d3)-6-(3,3,4,4,4-pentafluorobutyl)-1H-pyrazolo[3,4-d]pyrimidin-4-yl)-5,7-dihydro-6H-pyrrolo[2,3-d]pyrimidin-6-one] | – | 371 nM | 89%
10 | [2H]C([2H])([2H])n1ncc2c(-c3nc(N)c4c(n3)NC(=O)C4(C)c3cn(CC)nn3)nc(CCC(F)(F)C(F)(F)F)nc21 (centres unmarked) [Example 64, 4-Amino-5-(1-ethyl-1H-1,2,3-triazol-4-yl)-5-methyl-2-(1-(methyl-d3)-6-(3,3,4,4,4-pentafluorobutyl)-1H-pyrazolo[3,4-d]pyrimidin-4-yl)-5,7-dihydro-6H-pyrrolo[2,3-d]pyrimidin-6-one] | 120% | 114 nM | –
11 | [2H]C([2H])([2H])n1ncc2c(-c3nc(N)c4c(n3)NC(=O)C4(C)c3cn(C(C)C)nn3)nc(CCC(F)(F)C(F)(F)F)nc21 (single isomer, unassigned) [Example 57, 4-Amino-5-(1-isopropyl-1H-1,2,3-triazol-4-yl)-5-methyl-2-(1-(methyl-d3)-6-(3,3,4,4,4-pentafluorobutyl)-1H-pyrazolo[3,4-d]pyrimidin-4-yl)-5,7-dihydro-6H-pyrrolo[2,3-d]pyrimidin-6-one] | 125% | 147 nM | –
12 | [2H]C([2H])([2H])n1ncc2c(-c3nc(N)c4c(n3)NC(=O)C4(C)c3ccc4cccnc4c3)nc(CCC(F)(F)C(F)(F)F)nc21 (centres unmarked) [Example 13, 4-Amino-5-methyl-2-(1-(methyl-d3)-6-(3,3,4,4,4-pentafluorobutyl)-1H-pyrazolo[3,4-d]pyrimidin-4-yl)-5-(quinolin-7-yl)-5,7-dihydro-6H-pyrrolo[2,3-d]pyrimidin-6-one] | 89% | 29 nM | –
13 | [2H]C([2H])([2H])n1ncc2c(-c3nc(N)c4c(n3)NC(=O)C4(C)c3nc(C4CC4)no3)nc(CCC(F)(F)C(F)(F)F)nc21 (centres unmarked) [Example 8, 4-Amino-5-(3-cyclopropyl-1,2,4-oxadiazol-5-yl)-5-methyl-2-(1-(methyl-d3)-6-(3,3,4,4,4-pentafluorobutyl)-1H-pyrazolo[3,4-d]pyrimidin-4-yl)-5,7-dihydro-6H-pyrrolo[2,3-d]pyrimidin-6-one] | 126% | 49 nM | –
